Assay results from US20170226518A1, “COMPOSITIONS AND METHODS FOR TREATING CANCER” (Autotelic LLC, priority 2016, published 2017).
In the oligonucleotide strings, read from the 5' end, every base follows the letter of its sugar. An asterisk marks phosphorothioate; unmarked linkages are phosphodiester. Other units and linkages are bracketed, terminal groups are in braces. A string of capitals states the bases alone. d = 2'-deoxy (DNA)

Assay: Phase I/II dose escalation study P-001: safety and tolerability (MTD, DLT, TEAE, SAE), i.v. infusion
Format: in vivo, human
Procedure: Over-expression of transforming growth factor-beta 2 (TGF-β2) is associated with poor prognosis and plays a key role for malignant progression of various tumors by inducing proliferation, metastasis, angiogenesis and immunosuppression. P-001 trial of trabedersen—Safety and Tolerability of AP 12009 (trabedersen), Administered I.V. in Patients With Advanced Tumors Known to Overproduce TGFβ2, was evaluated to determine if treatment with trabedersen primed the tumors to subsequent chemotherapy.
In the instant study, the primary objective was to determine the Maximum Tolerated Dose (MTD) and the Dose Limited Toxicity (DLT) of two cycles of trabedersen administered intravenously (i.v.) for either 7 days every other week (i.e. 7 days on/7 days off) or for 4 days every other week (4 days on/10 days off). The secondary objective included assessment of antitumor activity of trabedersen administered intravenously for either 7 days every other week (i.e. 7 days on/7 days off) or for 4 days every other week (4 days on/10 days off).
The escalation scheme of this study aimed to determinate the MTD of two cycles of trabedersen (so called ‘core study period’) administered as a continuous i.v. infusion for 7 days every other week (7-days-on/7-days-off) or for 4 days every other week (4-days-on/10-days-off).
In general, it was planned to enroll a cohort of at least 3 evaluable patients per treatment group. For each cohort, the safety data obtained until end of the core study period (period for DLT-assessment, Cycle 1 and Cycle 2) were assessed in an interim analysis and evaluated by a Data and Safety Monitoring Board (DSMB). […] If 2 of these 3 patients experienced a DLT, the number of evaluable patients for the subsequent treatment group was increased to 6 for further evaluation of toxicity. Patients who were withdrawn from the study due to adverse events (AEs) attributed to DLT by the treating clinician, were not replaced but were used to determine the MTD and to evaluate the safety of the study drug. If patients were withdrawn due to other reasons, they were replaced until the treatment group was complete.
The MTD was determined according to the following procedure: If 2 out of 3 patients of 1 cohort experienced a DLT, 3 more patients were enrolled in the same treatment group. If at least 1 of these additional 3 patients also met the toxicity criteria for a DLT, the MTD for two cycles was determined; otherwise the dose escalation was continued upon agreement with the DSMB. MTD for two cycles was then defined as the dose at which no more than 2 out of 3, or 2 out of 6 patients of the same treatment group experienced a DLT. This procedure was followed until the MTD was reached.
After dose escalation had been completed, an additional larger cohort of patients was enrolled and treated with a dose of 140 mg/m^2/day employing the 4-days-on/10-days-off schedule, with endorsement by the DSMB. This cohort was to include at least 12 patients with a histologically or cytologically confirmed diagnosis of stage III or IV pancreatic cancer, corresponding to AJCC 1997 stage IVa and IVb, respectively, and at least 12 patients with stage III or IV melanoma.
The safety population comprised of 61 patients, representing all patients for whom at least once a trabedersen infusion was started. According to the protocol, the MTD was determined according to the following procedure: if 2 out of 3 patients of one cohort experience dose-limiting toxicity, 3 more patients were enrolled in the same treatment group. If at least 1 more patient of this second cohort met the toxicity criteria, MTD for two cycles has been determined (otherwise escalation was continued). MTD for two cycles was then defined as the dose at which no more than 2 out of 3 or 2 out of 6 patients of the same treatment group experienced DLT. […] In the case that 2 patients of the first cohort experienced DLTs that clearly indicated attainment of the MTD, the second cohort could also be omitted. […]

[1] = 4-days-on and 10-days-off schedule
[2] = 4-days-on, 10-daysoff schedule (N = 44)
[3] = 7-days-on and 7-days-off schedule
[4] = 7-days-on, 7-daysoff schedule (N = 17)

trabedersen: TGFβ2 specific phosphorothioate antisense oligodeoxynucleotide with the sequence 5′-CGGCATGTCTATTTTGTA-3′ (SEQ ID No: 1) (antisense dC*dG*dG*dC*dA*dT*dG*dT*dC*dT*dA*dT*dT*dT*dT*dG*dT*dA)
DLT observed (140 mg/m^2/day, 4-days-on and 10-days-off schedule, one patient): dose-limiting Grade 3 upper gastrointestinal hemorrhage | patients who experienced a DLT (240 mg/m^2/day, 7-days-on and 7-days-off, 2 Grade 3 thrombocytopenia, 1 Grade 3 maculopapular rash): 3 patients | frequency of patients with TEAEs that led to treatment discontinuation [1]: 15.9% | patients with TEAEs that led to treatment discontinuation [1]: 7 patients | Any SAE: No. (%) of patients with SAE [2]: 18 (40.9) No. (%) of patients | Any SAE: No. of SAEs [2]: 28 No. of SAEs | Ascites: No. (%) of patients with SAE [2]: 0 No. (%) of patients | Cancer Pain: No. (%) of patients with SAE [2]: 2 (4.5) No. (%) of patients | Cancer Pain: No. of SAEs [2]: 2 No. of SAEs | Catheter related Infection: No. (%) of patients with SAE [2]: 1 (2.3) No. (%) of patients | Catheter related Infection: No. of SAEs [2]: 1 No. of SAEs | Cholangitis: No. (%) of patients with SAE [2]: 3 (6.8) No. (%) of patients | Cholangitis: No. of SAEs [2]: 3 No. of SAEs | Cholestasis: No. (%) of patients with SAE [2]: 1 (2.3) No. (%) of patients | Cholestasis: No. of SAEs [2]: 1 No. of SAEs | GI hemorrhage: No. (%) of patients with SAE [2]: 1 (2.3) No. (%) of patients | GI hemorrhage: No. of SAEs [2]: 2 No. of SAEs | Pneumonia: No. (%) of patients with SAE [2]: 0 No. (%) of patients | Upper GI hemorrhage: No. (%) of patients with SAE [2]: 1 (2.3) No. (%) of patients | Upper GI hemorrhage: No. of SAEs [2]: 1 No. of SAEs | frequency of patients with TEAEs that led to treatment discontinuation [3]: 41.2% | patients with TEAEs that led to treatment discontinuation [3]: 7 patients | daily dose of MTD (7-days-on and 7-days-off schedule, approx.): approx. 4 mg/kg/day | Any SAE: No. (%) of patients with SAE [4]: 12 (70.6) No. (%) of patients | Any SAE: No. of SAEs [4]: 28 No. of SAEs | Ascites: No. (%) of patients with SAE [4]: 3 (17.6) No. (%) of patients | Ascites: No. of SAEs [4]: 3 No. of SAEs | Cancer Pain: No. (%) of patients with SAE [4]: 0 No. (%) of patients | Catheter related Infection: No. (%) of patients with SAE [4]: 2 (11.8) No. (%) of patients | Catheter related Infection: No. of SAEs [4]: 2 No. of SAEs | Cholangitis: No. (%) of patients with SAE [4]: 1 (5.9) No. (%) of patients | Cholangitis: No. of SAEs [4]: 1 No. of SAEs | Cholestasis: No. (%) of patients with SAE [4]: 1 (5.9) No. (%) of patients | Cholestasis: No. of SAEs [4]: 1 No. of SAEs | GI hemorrhage: No. (%) of patients with SAE [4]: 2 (11.8) No. (%) of patients | GI hemorrhage: No. of SAEs [4]: 3 No. of SAEs | Pneumonia: No. (%) of patients with SAE [4]: 3 (17.6) No. (%) of patients | Pneumonia: No. of SAEs [4]: 3 No. of SAEs | Upper GI hemorrhage: No. (%) of patients with SAE [4]: 1 (5.9) No. (%) of patients | Upper GI hemorrhage: No. of SAEs [4]: 1 No. of SAEs | Maximum Tolerated Dose (MTD) (4 days on and 10 days off regimen, MTD not reached at highest dose tested): > 330 mg/m^2/d | Maximum Tolerated Dose (MTD) (7 days on and 7 days off regimen, continuous i.v. infusion, two cycles): 160 mg/m^2/d | Any SAE: No. (%) of patients with SAE (Total (N = 61)): 30 (49.2) No. (%) of patients | Any SAE: No. of SAEs (Total (N = 61)): 56 No. of SAEs | Ascites: No. (%) of patients with SAE (Total (N = 61)): 3 (4.9) No. (%) of patients | Ascites: No. of SAEs (Total (N = 61)): 3 No. of SAEs | Cancer Pain: No. (%) of patients with SAE (Total (N = 61)): 2 (3.3) No. (%) of patients | Cancer Pain: No. of SAEs (Total (N = 61)): 2 No. of SAEs | Catheter related Infection: No. (%) of patients with SAE (Total (N = 61)): 3 (4.9) No. (%) of patients | Catheter related Infection: No. of SAEs (Total (N = 61)): 3 No. of SAEs | Cholangitis: No. (%) of patients with SAE (Total (N = 61)): 4 (6.6) No. (%) of patients | Cholangitis: No. of SAEs (Total (N = 61)): 4 No. of SAEs | Cholestasis: No. (%) of patients with SAE (Total (N = 61)): 2 (3.3) No. (%) of patients | Cholestasis: No. of SAEs (Total (N = 61)): 2 No. of SAEs | GI hemorrhage: No. (%) of patients with SAE (Total (N = 61)): 3 (4.9) No. (%) of patients | GI hemorrhage: No. of SAEs (Total (N = 61)): 3 No. of SAEs | Pneumonia: No. (%) of patients with SAE (Total (N = 61)): 3 (4.9) No. (%) of patients | Pneumonia: No. of SAEs (Total (N = 61)): 3 No. of SAEs | Upper GI hemorrhage: No. (%) of patients with SAE (Total (N = 61)): 2 (3.3) No. (%) of patients | Upper GI hemorrhage: No. of SAEs (Total (N = 61)): 2 No. of SAEs | frequency of patients with TEAEs that led to treatment discontinuation (all patients): 23.0% | patients with TEAEs that led to treatment discontinuation (all patients): 14 patients | total of TEAEs that led to treatment discontinuation (all patients): 23 TEAEs | frequency of patients with TEAEs that led to treatment discontinuation (colorectal cancer): 40.0% | patients with TEAEs that led to treatment discontinuation (colorectal cancer): 2 patients | frequency of patients with TEAEs that led to treatment discontinuation (melanoma): 15.8% | patients with TEAEs that led to treatment discontinuation (melanoma): 3 patients | frequency of patients with TEAEs that led to treatment discontinuation (pancreatic cancer): 24.3% | patients with TEAEs that led to treatment discontinuation (pancreatic cancer): 9 patients | patients for whom a DLT was proclaimed (whole study: 2 pancreatic carcinoma, 2 colorectal cancer): 4 patients
